What is called IC50 is the concentration that inhibits the measured activity by half.

The target of the assay is T1, ACAT2 (Mus musculus, UniProt O88908).
T1 construct: The resulting sediment was collected as a murine hepatic microsome fraction; from tissue; host or cells: mouse liver (hepatic microsome fraction)
T1 sequence (O88908 1-525): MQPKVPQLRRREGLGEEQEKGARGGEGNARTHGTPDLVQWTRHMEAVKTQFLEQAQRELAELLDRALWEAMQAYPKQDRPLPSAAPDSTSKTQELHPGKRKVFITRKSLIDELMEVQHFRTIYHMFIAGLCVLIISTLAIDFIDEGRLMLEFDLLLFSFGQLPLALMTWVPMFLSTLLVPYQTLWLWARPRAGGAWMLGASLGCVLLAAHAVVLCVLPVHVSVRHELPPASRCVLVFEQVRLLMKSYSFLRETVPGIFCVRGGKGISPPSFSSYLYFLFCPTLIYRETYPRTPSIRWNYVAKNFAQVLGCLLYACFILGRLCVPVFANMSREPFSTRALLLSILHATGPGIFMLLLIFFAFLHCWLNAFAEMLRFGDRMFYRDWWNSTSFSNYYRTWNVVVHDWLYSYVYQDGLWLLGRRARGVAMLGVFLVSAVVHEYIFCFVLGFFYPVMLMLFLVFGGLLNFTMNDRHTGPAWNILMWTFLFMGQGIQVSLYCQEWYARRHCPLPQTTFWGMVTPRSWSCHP
In words: Test of inhibitory activity against ACAT2 (murine hepatic microsome, [1-14C]oleoyl coenzyme A). The assay is classed as biochemical. The settings on record: for IC50: murine hepatic microsome fraction as enzyme source, 37° C., 5 minutes; for degree of inhibitory activity against ACAT2 (in words, compared with pyripyropene A): summary of Table 1. On the procedure: The compounds produced in accordance with the procedure described above were tested concerning the inhibitory activity against ACAT2 in the manner described below.
The ACAT2 enzyme protein was extracted from the membrane fraction derived from the murine hepatic microsome. Mouse livers were homogenized in buffer A (50 mM Tris-HCl buffer (pH 7.8), 1 mM ethylenediaminetetraacetic acid, and 1 mM phenylmethanesulfonyl fluoride) using a Potter-type homogenizer (Tokyo-RIKO). The homogenate was centrifuged at 12,000×g, and the supernatant was subjected to ultracentrifugation at […]. The resulting sediment was collected as a murine hepatic microsome fraction, and this fraction was adjusted so as to have a protein concentration of 5 mg/ml using buffer A. Thus, an enzyme source of the ACAT2 enzyme protein was obtained.
ACAT2 activity was measured in the manner described below. […] The reaction solution was incubated at 37° C. for 5 minutes. A reaction solution prepared with the addition of 10 μl of methanol in place of the sample was used as a control reaction solution.
After the incubation, the reaction was terminated with the addition of 1.2 ml of a chloroform/methanol (1:2) solution to the reaction solution. […] The resulting chloroform layer was evaporated to dryness and spotted on a thin layer chromatography (TLC) plate (silica gel plate, 0.5 mm thickness, Merck). Separation was carried out with the use of a solvent comprising hexane/diethyl ether/acetic acid (70:30:1, v/v). Subsequently, [^14C] cholesteryl oleate separated on the TLC plate was quantified using FLA 7000 (Fuji Film). […] In quantification of the [^14C] cholesteryl oleate, the radioactivity of a TLC plate onto which no substance had been spotted was designated as the background level.
The symbols used in the table are as defined below.

A value given as a limit tells only on which side of the number the result lay.

Turning to `CC(C)[C@@H]1C[C@H](OC(=O)c2ccc(C#N)cc2)[C@@]2(C)Oc3cc(-c4cccnc4)oc(=O)c3[C@H](O)[C@@H]2C1` [PT005, (5aS,6S,8S,9aS,10R)-10-hydroxy-8-isopropyl-5a-methyl-1-oxo-3-(pyridin-3-yl)-1,5a,6,7,8,9,9a,10-octahydropyrano[4,3-b]chromen-6-yl 4-cyanobenzoate], the IC50 was less than 0.5 µM and the “degree of inhibitory activity against ACAT2 (in words, compared with pyripyropene A)” value is listed as “substantially equivalent to that of pyripyropene A”. As to `CC(=O)OCC(COC(C)=O)[C@@H]1C[C@H](OC(=O)c2ccc(C#N)cc2)[C@@]2(C)Oc3cc(-c4cccnc4)oc(=O)c3[C@H](O)[C@@H]2C1(C)C` [PT022, 2-((5aS,6S,8S,9aS,10R)-6-((4-cyanobenzoyl)oxy)-10-hydroxy-5a,9,9-trimethyl-1-oxo-3-(pyridin-3-yl)-1,5a,6,7,8,9,9a,10-octahydropyrano[4,3-b]chromen-8-yl)propane-1,3-diyl diacetate], the IC50 is less than 0.5 µM. For the compound `CC(C)[C@@H]1C[C@H](OC(=O)c2ccc(C#N)cc2)[C@@]2(C)Oc3cc(-c4cccnc4)oc(=O)c3[C@@H](O)[C@@H]2C1` [PT006, (5aS,6S,8S,9aS,10S)-10-hydroxy-8-isopropyl-5a-methyl-1-oxo-3-(pyridin-3-yl)-1,5a,6,7,8,9,9a,10-octahydropyrano[4,3-b]chromen-6-yl 4-cyanobenzoate], the IC50 was less than 0.5 µM and the “degree of inhibitory activity against ACAT2 (in words, compared with pyripyropene A)” value is on record as “substantially equivalent to that of pyripyropene A”. With `CC(=O)O[C@H]1C[C@@H](C(C)C)C(C)(C)[C@H]2[C@@H](O)c3c(cc(-c4cccnc4)oc3=O)O[C@]12C` [PT008, (5aS,6S,8S,9aS,10R)-10-hydroxy-8-isopropyl-5a,9,9-trimethyl-1-oxo-3-(pyridin-3-yl)-1,5a,6,7,8,9,9a,10-octahydropyrano[4,3-b]chromen-6-yl acetate], the IC50 lay within 0.5 to 10 µM. The same measure, in the same setting: the value for `CC(=O)O[C@H]1C[C@@H](C(C)C)C[C@H]2C(O)c3c(cc(-c4ccccc4)oc3=O)O[C@]12C` (stereo in doubt) [PT003, (5aS,6S,8S,9aS,10R)-10-hydroxy-8-isopropyl-5a-methyl-1-oxo-3-phenyl-1,5a,6,7,8,9,9a,10-octahydropyrano[4,3-b]chromen-6-yl acetate] was 10 to 100 µM. For the compound `CC(=O)O[C@H]1C[C@@H](C(C)C)C[C@H]2[C@@H](O)c3c(cc(-c4cccnc4)oc3=O)O[C@]12C` [PT001, (5aS,6S,8S,9aS,10R)-10-hydroxy-8-isopropyl-5a-methyl-1-oxo-3-(pyridin-3-yl)-1,5a,6,7,8,9,9a,10-octahydropyrano[4,3-b]chromen-6-yl acetate], the half-inhibitory concentration (IC50) was in the range of 10 to 100 µM. Take `CC(=O)O[C@H]1C[C@@H](C(C)C)C[C@H]2[C@H](O)c3c(cc(-c4cccnc4)oc3=O)O[C@]12C` [PT002, (5aS,6S,8S,9aS,10S)-10-hydroxy-8-isopropyl-5a-methyl-1-oxo-3-(pyridin-3-yl)-1,5a,6,7,8,9,9a,10-octahydropyrano[4,3-b]chromen-6-yl acetate]: the IC50 was 10 to 100 µM. `CC(=O)O[C@H]1C[C@@H](C(C)C)C[C@H]2[C@H](O)c3c(cc(-c4ccccc4)oc3=O)O[C@]12C` [PT004, (5aS,6S,8S,9aS,10S)-0-hydroxy-8-isopropyl-5a-methyl-1-oxo-3-phenyl-1,5a,6,7,8,9,9a,10-octahydropyrano[4,3-b]chromen-6-yl acetate] returned an IC50 of 0.5 to 10 µM. Compound `CC(C)[C@@H]1C[C@H](OC(=O)c2ccc(C#N)cc2)[C@@]2(C)Oc3cc(-c4ccccc4)oc(=O)c3[C@H](O)[C@@H]2C1` [PT007, (5aS,6S,8S,9aS,10R)-10-hydroxy-8-isopropyl-5a-methyl-1-oxo-3-phenyl-1,5a,6,7,8,9,9a,10-octahydropyrano[4,3-b]chromen-6-yl 4-cyanobenzoate] showed an IC50 of 0.5 to 10 µM.

On to `CC(=O)OCC(COC(C)=O)[C@@H]1C[C@H](OC(C)=O)[C@@]2(C)Oc3cc(-c4cccnc4)oc(=O)c3[C@H](O)[C@@H]2C1(C)C` [PT010], for which the IC50 is 10 to 100 µM.

Take `CC(C)[C@@H]1C[C@H](OC(=O)c2ccc(C#N)cc2)[C@@]2(C)Oc3cc(-c4cccnc4)oc(=O)c3[C@H](O)[C@@H]2C1(C)C` [PT009, (5aS,6S,8S,9aS,10R)-10-hydroxy-8-isopropyl-5a,9,9-trimethyl-1-oxo-3-(pyridin-3-yl)-1,5a,6,7,8,9,9a,10-octahydropyrano[4,3-b]chromen-6-yl 4-cyanobenzoate]: the IC50 was less than 0.5 µM and the “degree of inhibitory activity against ACAT2 (in words, compared with pyripyropene A)” value was “substantially equivalent to that of pyripyropene A”.

For the origin of these results see patent US9896456B2, “Pharmaceutical compound having inhibitory activity against cholesterol acyltransferase isozyme 2 (ACAT2)” (School Juridical Person Kitasato Institute, priority 2014, dated 2018).
